# Measured values taken from US9932333B2, “Benzothiazole compound and medicine containing same” (JAPAN SCIENCE AND TECHNOLOGY AGENCY, priority 2014, dated 2018).
# Square brackets hold non-standard residues; d marks the D form. Peptide text beside a SMILES is read from it. * marks the point of attachment. X1 = C[n+]1c(-c2ccc3c(c2)CCCN3CCCCCC(=O)*)sc2cc(Br)ccc21; dBip = N[C@H](Cc1ccc(-c2ccccc2)cc1)C(=O)O
# What was measured:
# Aβ1-42 [1] = molecular target: T1, Aβ1-42 (Homo sapiens, UniProt P05067); assay: Oxygenation ratio of aggregated to non-aggregated Aβ1-42 (Example 8); type: biochemical; settings: 20.0 mmol %, pH 7.4, room temperature, light 10 minutes
# Experimental: (§1) Then, the reaction was monitored with a mass spectrometer (MALDI-TOF MS).
# (§2) Each oxygenation ratio was calculated according to (Intensity ratio of oxygenation of aggregated Aβ1-42)/(Intensity ratio of oxygenation of non-aggregated Aβ1-42) and (Intensity ratio of oxygenation of aggregated nucleoside phosphorylase)/(Intensity ratio of oxygenation of non-aggregated nucleoside phosphorylase).
# Aβ1-42 oligomers [2] = molecular target: T2, Aβ1-42 oligomers (Homo sapiens, UniProt P05067); assay: Oxygenation of Aβ1-42 oligomer (Example 6); type: biochemical; settings: 4 μM; light 10 minutes, room temperature
# Experimental: (3) Compound (1a) (4 μM) was added to each of solutions containing two types of Aβ1-42 oligomers (0.5 μM) prepared by the incubation of Aβ1-42 (20 μM) in a phosphate buffer solution (10 mM, pH 7.4) at 0° C. and room temperature, respectively, for 24 hours, and the mixture was incubated at room temperature for 10 minutes under irradiation with LED (wavelength: 500 nm). Then, the reaction was monitored with a mass spectrometer (MALDI-TOF MS). The intensity ratio of oxygenation (%) was calculated according to (Total intensity of oxygen adducts)/((Intensity of non-oxygen adduct (native))+(Total intensity of oxygen adducts)).
# Absorption spectra = type: physicochemical
# nucleoside phosphorylase = assay: Oxygenation ratio of aggregated to non-aggregated nucleoside phosphorylase (Example 8); type: biochemical; settings: 4 μM, pH 7.4, room temperature, light 10 minutes
# Experimental: (1) A phosphate buffer solution (10 mM, pH 7.4) containing nucleoside phosphorylase (0.1 mg/mL) was incubated at 60° C. The degree of thermal aggregation was monitored using a fluorescence assay kit (Protein Stability and Aggregation Assay Kit (ProFoldin, Hudson, Mo., USA)).
# (§3) The reaction was monitored with a mass spectrometer (MALDI-TOF MS).
# as §2
# α-synuclein = α-synuclein (Homo sapiens, UniProt P37840); assay: Oxygenation reaction of α-synuclein; type: biochemical
# Source text: as §3
# [3] = molecular target: Aβ coexisting with angiotensin IV and methionine enkephalin (Homo sapiens, UniProt P05067); assay: Oxygenation with Aβ coexisting with angiotensin IV and methionine enkephalin; type: biochemical
# Source text: (§4) Then, the reaction was monitored with a mass spectrometer (MALDI-TOF MS) or LC/MS (ESI-Q).
# Aβ1-42 [4] = molecular target: T1, Aβ1-42; assay: Fluorescence spectra in the presence or absence of Aβ1-42; type: binding; settings: Aβ1-42 20 μM, 37° C., 3 hours
# angiotensin IV [5] = molecular target: T3, angiotensin IV (Homo sapiens, UniProt P01019); assay: Selectivity of oxygenation reaction, angiotensin IV (Example 4); type: biochemical; set-up: unit not given here; settings: compound (1a) 20 mmol %, light 1 hour, 37° C.
# Source text: as §4
# [6] = Oxidation reaction of benzoyl methionine in glycerol/water; settings: aqueous solution containing glycerol, light irradiation
# Source text: (§5) Then, the reaction was monitored with LC/MS (ESI-Q).
# somatostatin = somatostatin (Homo sapiens, UniProt P61278); assay: Selectivity of oxygenation reaction, somatostatin (Example 4); type: biochemical; set-up: unit not given here; settings: compound (1a) 20 mmol %, light 1 hour, 37° C.
# Source text: as §4
# [7] = Singlet oxygen production in glycerol/water (furfuryl alcohol decrease); settings: aqueous solution containing glycerol, light irradiation
# Source text: as §5
# desacyl ghrelin = molecular target: T4, desacyl ghrelin (Homo sapiens, UniProt Q9UBU3); assay: Selectivity of oxygenation reaction, desacyl ghrelin (Example 4); type: biochemical; set-up: unit not given here; settings: compound (1a) 20 mmol %, light 1 hour, 37° C.
# T4 sequence (Q9UBU3 24-51 limits assumed): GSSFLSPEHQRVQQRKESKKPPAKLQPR
# Source text: as §4
# aggregated Aβ1-42 [8] = molecular target: T5, aggregated Aβ1-42 (Homo sapiens, UniProt P05067); assay: Increase of the intensity ratio of oxygenation of aggregated Aβ1-42 (Example 5); type: biochemical; settings: Aβ1-42 incubated 0, 1, 3, 6 hours; light 10 minutes, room temperature
# Experimental: as §1
# Increase of the intensity ratio of oxygenation (%) was calculated according to (Intensity ratio of oxygenation of aggregated Aβ1-42 (incubated at 37° C. for the predetermined time))−(Intensity ratio of oxygenation of aggregated Aβ1-42 (incubated at 37° C. for 0 hours)).
# The intensity ratio of oxygenation (%) was calculated according to (Total intensity of oxygen adducts)/((Intensity of non-oxygen adduct (native))+(Total intensity of oxygen adducts)).
# aggregated Aβ1-42 [9] = molecular target: T5, aggregated Aβ1-42; assay: Binding to aggregated Aβ1-42 by fluorescence assay (Example 5); settings: 10 μM; Aβ1-42 incubated 0, 1, 3, 6 hours
# Experimental: (2) Compound (1a) (10 μM) was added to each of solutions containing 4 types of aggregated Aβ1-42 (0.5 μM) prepared by the incubation of Aβ1-42 (20 μM) in a phosphate buffer solution (10 mM, pH 7.4) at 37° C. for 0, 1, 3, and 6 hours, respectively, followed by the measurement of the fluorescence intensity of compound (1a).
# transthyretin = transthyretin (Homo sapiens, UniProt P02766); assay: Oxygenation reaction of transthyretin; type: biochemical
# Source text: as §3
# Aβ1-42 oligomers [10] = molecular target: T2, Aβ1-42 oligomers; assay: Binding to Aβ1-42 oligomer by fluorescence assay (Example 6); settings: 10 μM; oligomers prepared at 0° C. and room temperature, 24 hours
# Experimental: (2) Compound (1a) (10 μM) was added to each of solutions containing two types of Aβ1-42 oligomers (0.5 μM) prepared by the incubation of Aβ1-42 (20 μM) in a phosphate buffer solution (10 mM, pH 7.4) at 0° C. and room temperature, respectively, for 24 hours, followed by the measurement of the fluorescence intensity of compound (1a).
# [11] = Fluorescence in glycerol/water mixed solvent; type: physicochemical; settings: increasing glycerol concentration
# methionine enkephalin [12] = molecular target: T6, methionine enkephalin (Homo sapiens, UniProt P01210); assay: Selectivity of oxygenation reaction, methionine enkephalin (Example 4); type: biochemical; set-up: unit not given here; settings: compound (1a) 20 mmol %, light 1 hour, 37° C.
# Source text: as §4
# angiotensin IV [13] = molecular target: T3, angiotensin IV; assay: Oxidation reaction of angiotensin IV (Example 3); type: biochemical; settings: light irradiation 1.5 hours, neutral buffer, 37° C.
# Source text: as §4
# Aβ1-42 oligomers [14] = molecular target: T2, Aβ1-42 oligomers; assay: Aggregability of oxygenized Aβ1-42 oligomer (Nile Red, atomic force microscopy); type: biochemical; settings: compared with native
# Experimental: (4) Compound (1a) (4 μM) was added to each of solutions containing two types of Aβ1-42 oligomers (0.5 μM) prepared by the incubation of Aβ1-42 (20 μM) in a phosphate buffer solution (10 mM, pH 7.4) at 0° C. and room temperature, respectively, for 24 hours, and the mixture was incubated at room temperature for 1 hour under irradiation with LED (wavelength: 500 nm). Then, each solution was incubated at 37° C., and Nile Red was added thereto, followed by the measurement of its fluorescence intensity. The sample incubated for 6 hours was also analyzed for its shape by atomic force microscopy. A non-oxygenized Aβ1-42 oligomer (native) was prepared without light irradiation.
# Aβ1-42 [15] = molecular target: T1, Aβ1-42; assay: Oxidation reaction of Aβ1-42 under LED irradiation (Example 3); type: biochemical
# Experimental: as §4
# (§6) The amino acid analysis of oxidized Aβ1-42 and oxidized amylin (carried out by Peptide Institute, Inc.) was conducted. The oxidized Aβ1-42 and the oxidized amylin were enzymatically digested with endopeptidase Lys-C and chymotrypsin, respectively, and the obtained digests were analyzed with a mass spectrometer (MALD-TOF MS) and LC/MS/MS (ESI-Q-TOF).
# insulin = molecular target: T7, insulin (Homo sapiens, UniProt P01308); assay: Oxygenation reaction of insulin; type: biochemical
# T7 construct: prepared by the incubation of insulin (400 μM) in a 25 mM hydrochloric acid solution
# Source text: as §1
# methionine enkephalin [16] = molecular target: T6, methionine enkephalin; assay: Oxidation reaction of methionine enkephalin (Example 3); type: biochemical; settings: light irradiation 1.5 hours, neutral buffer, 37° C.
# Source text: as §4
# amylin = molecular target: T8, amylin (Homo sapiens, UniProt P10997); assay: Oxidation reaction of amylin; type: biochemical
# T8 construct: amylin, a hormone essential for glycemic control
# T8 sequence (P10997 34-70 limits assumed): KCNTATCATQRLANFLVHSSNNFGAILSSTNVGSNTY
# Experimental: as §4, §6
# β2-microglobulin = β2-microglobulin (Homo sapiens, UniProt P61769); assay: Oxygenation reaction of β2-microglobulin; type: biochemical
# Source text: as §3
# Aβ1-42 [17] = molecular target: T1, Aβ1-42; assay: Oxygenation of Aβ1-42 in cell culture medium; type: biochemical; settings: 50 mmol %, light 500 nm, 30 minutes, medium containing 0.1% horse serum
# Source text: as §1
# PC12 cells = type: cell-based, rat
# Experimental: The solution was added at 50 μL/well to rat adrenal medulla-derived pheochromocytoma PC12 cells (purchased from RIKEN, Japan) inoculated to a poly-D-lysine-coated 96-well plate and similarly reacted. The reaction solution in each well was diluted with 50 μL of a Dulbecco's modified eagle's medium containing 0.1% horse serum (final concentration of Aβ: 10 μM) and then incubated at 37° C. for 48 hours in a 5% CO2 atmosphere. A live cell count measurement reagent SF containing WST-8 (10 μL; purchased from Nacalai Tesque, Inc.) was added to each well, and the mixture was incubated at 37° C. for 3 hours in a 5% CO2 atmosphere. Then, the cell viability was measured from absorbance at 450 nm (reference wavelength: 655 nm).
# [18] = 20 μM, light 500 nm, 37° C., 30 minutes
# T2 sequence (P05067 672-713 limits assumed): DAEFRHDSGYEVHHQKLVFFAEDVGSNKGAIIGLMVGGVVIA
# T1 sequence (P05067 672-713 limits assumed): as above
# β2-microglobulin, sequence (P61769 21-119, species assumed): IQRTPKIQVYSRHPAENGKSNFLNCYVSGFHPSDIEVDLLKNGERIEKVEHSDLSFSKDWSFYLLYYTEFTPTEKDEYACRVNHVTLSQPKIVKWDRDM
# T7 sequence (P01308 25-54 limits assumed, species assumed): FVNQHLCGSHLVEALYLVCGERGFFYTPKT
# T7 sequence (P01308 90-110 limits assumed, species assumed): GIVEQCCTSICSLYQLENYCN
# T5 sequence (P05067 672-713 limits assumed): as the sequence (P05067 672-713 limits assumed) above
# Aβ coexisting with angiotensin IV and methionine enkephalin, sequence (P05067 672-713): as the sequence (P05067 672-713 limits assumed) above
compound,measurement,setting,value
C[n+]1c(-c2cc3c4c(c2)CCCN4CCC3)sc2cc(Br)ccc21 [1a],oxygenation ratio (aggregated Aβ1-42 / non-aggregated Aβ1-42),Aβ1-42 [1],approximately 4.2
same,oxygenation of Aβ1-42 oligomers,Aβ1-42 oligomers [2],able to catalyze the oxygenation of both of the Aβ1-42 oligomers
same,maximum absorption wavelength,"Absorption spectra; 20 μM, phosphate buffer pH 7.4",456 nm
same,shift of maximum absorption wavelength to longer wavelength than thioflavin T,Absorption spectra; compared with thioflavin T,approximately 50 nm
same,oxygenation ratio (aggregated / non-aggregated nucleoside phosphorylase),nucleoside phosphorylase,approximately 1.2
same,oxygenation of aggregated α-synuclein,α-synuclein; [18],observed
same,progression of oxygenation of non-aggregated α-synuclein,α-synuclein; [18],not observed
same,oxygenation of aggregated α-synuclein without light irradiation,α-synuclein; without light irradiation,not observed
same,selectivity of oxygenation with coexisting substrates,[3],highly selective oxygenation of Aβ was observed
same,fluorescence in the presence of Aβ compared with absence of Aβ,Aβ1-42 [4],remarkably high as compared with that in the absence of Aβ
same,generation of an oxygenated form of angiotensin IV,angiotensin IV [5],≤ 2
same,oxidation of benzoyl methionine,[6],oxidized in a glycerol concentration-dependent manner
same,generation of an oxygenated form of somatostatin,somatostatin,≤ 2
same,production of singlet oxygen (decrease in furfuryl alcohol),[7],"production of singlet oxygen, with increase in the concentration of glycerol was observed"
same,generation of an oxygenated form of desacyl ghrelin,desacyl ghrelin,≤ 2
same,increase of the intensity ratio of oxygenation,aggregated Aβ1-42 [8],increase of the intensity ratio of oxygenation was observed with increase in the fluorescence intensity of thioflavin T
same,binding to aggregated Aβ1-42 (fluorescence intensity),aggregated Aβ1-42 [9],bind to the cross-β-sheet structure of aggregated Aβ1-42
same,oxygenation of aggregated transthyretin,transthyretin; [18],observed
same,progression of oxygenation of non-aggregated transthyretin,transthyretin; [18],not observed
same,oxygenation of aggregated transthyretin without light irradiation,transthyretin; without light irradiation,not observed
same,binding to Aβ1-42 oligomer (fluorescence),Aβ1-42 oligomers [10],binds to the Aβ1-42 oligomer
same,fluorescence intensity in glycerol/water mixed solvent,[11],increased with increase in the concentration of highly viscous glycerol
same,generation of an oxygenated form of methionine enkephalin,methionine enkephalin [12],≤ 2
same,oxygenation of angiotensin IV,angiotensin IV [13],≤ 5%
same,increase in cross-β structure of Aβ1-42 oligomer (Nile Red fluorescence),"Aβ1-42 oligomers [14]; 4 μM, light 1 hour, then 37° C.",suppress increase in the cross-β structure of the Aβ1-42 oligomer
same,fibril formation of Aβ1-42 oligomer (atomic force microscopy),Aβ1-42 oligomers [14]; incubated for 6 hours,similarly suppressed
same,oxidation efficiency of Aβ,"Aβ1-42 [15]; 100 mmol %, light 500 nm, pH 7.4, 37° C., compared with thioflavin T",remarkably high as compared with thioflavin T
same,oxygenation site in Aβ1-42,Aβ1-42 [15]; amino acid analysis and LC/MS/MS analysis,"remarkably at His-13 and His-14 residues, and oxygenation also proceeds slightly at Met-35 residue"
same,progression of oxygenation of aggregated insulin,insulin; [18],observed
same,progression of oxygenation of non-aggregated insulin,insulin; [18],not observed
same,oxygenation of aggregated insulin without light irradiation,insulin; without light irradiation,not observed
same,oxygenation of methionine enkephalin,methionine enkephalin [16],≤ 5%
same,selectivity for aggregated over monomeric amylin,amylin,selectively reacts with aggregated amylin without acting on monomeric amylin
same,oxygenation of amylin,"amylin; 100 mmol %, light 500 nm, pH 7.4, 37° C.",time-dependent oxygenation at His-18 residue was observed
same,oxygenation of amylin in a monomeric state,amylin; pre-incubation 0 h,Only a trace amount of an oxygenated form was detected
same,oxygenation of amylin aggregated in advance,amylin; pre-incubation 1 hour and 2 hours,the ratio of oxygenized amylin was elevated
same,oxygenation of aggregated β2-microglobulin,β2-microglobulin; [18],observed
same,progression of oxygenation of non-aggregated β2-microglobulin,β2-microglobulin; [18],not observed
same,oxygenation of aggregated β2-microglobulin without light irradiation,β2-microglobulin; without light irradiation,not observed
CC(C)C[C@@H](NC(=O)[C@@H](CCCCN)NC(=O)CCCCCN1CCCc2cc(-c3sc4cc(Br)ccc4[n+]3C)ccc21)C(=O)N[C@@H](C(=O)N[C@H](Cc1ccc(-c2ccccc2)cc1)C(=O)N[C@H](Cc1ccccc1)C(=O)O)C(C)C [1e] (X1-[dK][dL][dV][dBip][dF]-OH),oxygenation of Aβ in a cell medium,Aβ1-42 [17],approximately 40%
same,phototoxicity (cell viability),PC12 cells,no phototoxicity
